Data: patent publication US20040024038A1, “GABA enhancers in the treatment of diseases relating to reduced neurosteroid activity” (H. Lundbeck A/S, priority 2000, published 2004)
Entries after “also recorded” stand apart in the source; their conditions may differ.

What was measured:
[1] = system: Female mice; assay: Elevated plus maze in progesterone withdrawal (PWD) model of PMS; format: in vivo; conditions: for Time Open Arm, Mean / Grid Cross, Mean (number of total grid crosses, general locomotor activity) / Time Outside Rail, Mean: THIP 1.25 mg/kg; for Time Open Arm, Mean: tested 40 minutes after injection, 10 min plus maze; for Grid Cross, Mean (number of total grid crosses, general locomotor activity) / Time Outside Rail, Mean: 40 minutes after injection
Experimental: The described model is a hormone withdrawal model of PMS in the rat, based on the prevailing hypothesis that dysphoric mood is predominantly associated with declining hormone levels (i.e., “hormone withdrawal”) in women with PMS.
Female mice (Charles River) were housed in pairs under a 14 hour light and 10 hour dark cycle with food and water ad libitum. All animals were tested during the light portion of the circadian cycle. In female mice, estrous cycle stage was determined by microscopic examination of the vaginal lavage, as described previously (Smith, 1987) and by measures of vaginal impedance (Bartlewski, 1999; Bartos, 1977; Koto, 1987; Koto, 1987) throughout one entire cycle prior to testing. Only females in diestrous were used as subjects.
Progesterone implants were made from silicone tubing (Nalgene Co, 1/16″i.d×1/8″ o.d.) which was cut to size depending on the body weight of the animal (10 mm tubing per 100 g), filled with crystalline progesterone and sealed with silastic medical adhesive (Dow Corning). The sealed capsules were incubated overnight in a solution containing 1% gelatine and 0.9% saline in a water bath (37° C.) with gentle shaking overnight. Sham implants are empty sealed tubes of the same dimensions. Rats were then anesthestized with 2% halothane (2-bromo-2-chloro-1,1,1-trifluroethane) in oxygen and the capsules implanted subcutaneously in the abdomen. Removal of the implants also occurred under the same regime of halothane anesthesia, and implanted s.c. under anesthesia in the abdominal area of the rat (Smith, 1998; Moran, 1998) for 21 days.
Control animals were implanted exactly the same way with empty (sham) silicone capsules. Animals were either sacrificed or tested 24 hrs after removal of the implant (P withdrawal).
On the day of testing, animals were injected with either THIP (1.25 mg/kg) or saline and tested 40 minutes after the injection.
Mice were tested on the plus maze, elevated 50 cm above the floor, in a room with low, indirect incandescent lighting and low noise levels. The plus maze consists of 2 enclosed arms (50×10×40 cm) and 2 open arms (50×10 cm) and is explained in detail in (Pellow, 1985).
The floor of all four arms was marked with grid lines every 25 cm. On the day of testing, each mouse was placed in the testing room for 30-40 minutes prior to testing in order to acclimatise to the situations. At the time of testing, each animal was tested for 10 minutes after exiting a start box in the centre platform of the plus maze. To be considered as an entry into any arm, the mouse must pass the line of the open platform with all four paws. The duration (in seconds) of time spent in the open arm was recorded from the time of entry into the open arm. Decreased time spent in the open arm generally indicates higher levels of anxiety (Pellow, 1985). Other behavioural measures recorded included the duration of time spent (in seconds) beyond the rail. The amount of time that subjects spend in the open portion of the plus maze in the absence of rails is considered to be more sensitive to anxiolytic agents (i.e. agents that would increase the amount of time spent in the open arm) than the amount of time spent in the open arms with rails (Fernandes, 1996). In order to measure general locomotor activity, the number of total grid crosses was counted. Lastly, the duration of time (in sec) spent grooming was also scored. The experimenter was blind to all conditions, and animals were tested in a randomised block design.
Data from the plus maze were analysed in a 2-way ANOVA (implant condition×injection condition) followed by a post-hoc ANOVA and post hoc t-test.

[2] = system: hippocampal cells; conditions: hippocampal cells after progesterone withdrawal; previous work; cited from earlier work
[3] = female control (sham implant) mice

Oc1noc2c1CCNC2 [THIP, THIP (Gaboxadol)]
Reversal of the PWD effect in the plus maze ([1]; PWD mice, dose of 1.25 mg/kg, 1.25 mg/kg): completely reversed the PWD effect; also recorded: counteract the PWD completely | Time Open Arm, Mean ([1]; female PWD mice (24 hrs after removal of progesterone implant)): 157.023 s | Grid Cross, Mean (number of total grid crosses, general locomotor activity) ([1]; female PWD mice): 83.333 | Time Outside Rail, Mean ([1]; female PWD mice): 29.503 s | Grid Cross, Mean (number of total grid crosses, general locomotor activity) [1, 3]: 52.000 | Time Outside Rail, Mean [1, 3]: 10.060 s | Time Open Arm, Mean [1, 3]: 38.377 s

O=C1Nc2ccc(Cl)cc2C(c2ccccc2Cl)=NC1O (centres unmarked) [lorazepam]
Sensitivity of hippocampal cells to the GABA-potentiating effect [2]: striking insensitivity
